Data: patent US10676465B2, “GLP-1 receptor agonists and uses thereof” (Pfizer Inc., priority 2018, dated 2020)

Columns and labels:
human GLP-1R [1] = target: human GLP-1R (Homo sapiens (Human), UniProt P43220, L260F); assay: CHO GLP-1R Clone C6 - Assay 2 (HTRF cAMP agonist assay, low receptor density); conditions: for EC50: read-out: Assay 2 EC50, CHO GLP-1R Clone C6 (low receptor density), cAMP HTRF, geometric mean; for Emax: read-out: Assay 2 Emax (%), CHO GLP-1R Clone C6 (low receptor density), arithmetic mean, relative to saturating GLP-1 (1 μM)
Sequence of human GLP-1R (Homo sapiens (Human), UniProt P43220, L260F) (P43220 24-463 L260F): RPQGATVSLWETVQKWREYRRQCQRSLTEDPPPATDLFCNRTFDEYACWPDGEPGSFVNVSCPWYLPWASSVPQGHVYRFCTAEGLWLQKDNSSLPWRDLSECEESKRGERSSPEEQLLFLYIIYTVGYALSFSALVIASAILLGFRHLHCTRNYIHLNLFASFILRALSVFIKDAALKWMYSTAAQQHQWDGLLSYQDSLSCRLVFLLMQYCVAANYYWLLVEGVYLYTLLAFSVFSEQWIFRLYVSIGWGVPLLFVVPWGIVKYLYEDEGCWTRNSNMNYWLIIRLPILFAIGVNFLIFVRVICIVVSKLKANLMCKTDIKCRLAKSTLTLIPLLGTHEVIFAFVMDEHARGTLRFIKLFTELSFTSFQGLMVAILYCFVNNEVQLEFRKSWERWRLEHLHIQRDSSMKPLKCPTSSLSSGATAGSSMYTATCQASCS
Procedure: CHO GLP-1R Clone C6—Assay 2
GLP-1R-mediated agonist activity was determined with a cell-based functional assay utilizing an HTRF (Homogeneous Time-Resolved Fluorescence) cAMP detection kit (cAMP HI Range Assay Kit; Cis Bio cat #62AM6PEJ) that measures cAMP levels in the cell. The method is a competitive immunoassay between native cAMP produced by the cells and exogenous cAMP labeled with the dye d2. The tracer binding is visualized by a mAb anti-cAMP labeled with Cryptate. The specific signal (i.e. energy transfer) is inversely proportional to the concentration of cAMP in either a standard or an experimental sample.
The human GLP-1R coding sequence (NCBI Reference Sequence NP_002053.3, including naturally-occurring variant Leu260Phe) was subcloned into pcDNA5-FRT-TO and a clonal CHO cell line stably expressing a low receptor density was isolated using the Flp-In™ T-Rex™ System, as described by the manufacturer (ThermoFisher).
Cells were removed from cryopreservation, re-suspended in 40 mL of Dulbecco's Phosphate Buffered Saline (DPBS—Lonza Cat #17-512Q) and centrifuged at 800×g for 5 minutes at 22° C. The DPBS was aspirated, and the cell pellet was re-suspended in 10 mL of complete growth medium (DMEM:F12 1:1 Mixture with HEPES, L-Gln, 500 mL (DMEM/F12 Lonza Cat #12-719F), 10% heat inactivated fetal bovine serum (Gibco Cat #16140-071), 5 mL of 100× Pen-Strep (Gibco Cat #15140-122), 5 mL of 100×L-Glutamine (Gibco Cat #25030-081), 700 μg/mL Hygromycin (Invitrogen Cat #10687010) and 15 μg/mL Blasticidin (Gibco Cat # R21001). A 1 mL sample of the cell suspension in growth media was counted on a Becton Dickinson ViCell to determine cell viability and cell count per mL. The remaining cell suspension was then adjusted with growth media to deliver 1600 viable cells per well using a Matrix Combi Multidrop reagent dispenser, and the cells were dispensed into a white 384 well tissue culture treated assay plate (Corning 3570). The assay plate was then incubated for 48 hours at 37° C. in a humidified environment (95% O2, 5% CO2)
Varying concentrations of each compound to be tested (in DMSO) were diluted in assay buffer [HBSS with Calcium/Magnesium (Lonza/BioWhittaker cat #10-527F)/0.1% BSA (Sigma Aldrich cat # A7409-1L)/20 mM HEPES (Lonza/BioWhittaker cat #17-737E)] containing 100 μM 3-isobutyl-1-methylxanthin (IBMX; Sigma cat #15879). The final DMSO concentration in the compound/assay buffer mixture is 1%.
After 48 hours, the growth media was removed from the assay plate wells, and the cells were treated with 20 μL of the serially diluted compound in assay buffer for 30 minutes at 37° C. in a humidified environment (95% O2, 5% CO2). Following the 30 minute incubation, 10 μL of labeled d2 cAMP and 10 μL of anti-cAMP antibody (both diluted 1:20 in cell lysis buffer; as described in the manufacturer's assay protocol) were added to each well of the assay plate. The plates were then incubated at room temperature and after 60 minutes, changes in the HTRF signal were read with an Envision 2104 multi-label plate reader using excitation of 330 nm and emissions of 615 and 665 nm. Raw data were converted to nM cAMP by interpolation from a cAMP standard curve (as described in the manufacturer's assay protocol) and the percent effect was determined relative to a saturating concentration of the full agonist GLP-1 (1 μM) included on each plate. EC50 determinations were made from agonist dose response curves analyzed with a curve fitting program using a 4-parameter logistic dose response equation.

human GLP-1R [2] = target: human GLP-1R (Homo sapiens, UniProt P43220, G168S); assay: CHO GLP-1R Clone H6 - Assay 1 (HTRF cAMP agonist assay); format: cell-based; conditions: for EC50: CHO GLP-1R Clone H6, cAMP HTRF, geometric mean; for Emax: CHO GLP-1R Clone H6, arithmetic mean, relative to saturating GLP-1 (1 μM)
Sequence of human GLP-1R (Homo sapiens, UniProt P43220, G168S) (P43220 24-463 G168S limits assumed): as the sequence (P43220 24-463 L260F) above, with G145S, F237L counted along it
Procedure: GLP-1R-mediated agonist activity was determined with a cell-based functional assay utilizing an HTRF (Homogeneous Time-Resolved Fluorescence) cAMP detection kit (cAMP HI Range Assay Kit; CisBio cat #62AM6PEJ) that measures cAMP levels in the cell. The method is a competitive immunoassay between native cAMP produced by the cells and exogenous cAMP labeled with the dye d2. The tracer binding is visualized by a mAb anti-cAMP labeled with Cryptate. The specific signal (i.e. energy transfer) is inversely proportional to the concentration of cAMP in either standard or experimental sample.
The human GLP-1R coding sequence (NCBI Reference Sequence NP_002053.3, including naturally-occurring variant Gly168Ser) was subcloned into pcDNA3 (Invitrogen) and a cell line stably expressing the receptor was isolated (designated Clone H6).
Cells were removed from cryopreservation, re-suspended in 40 mL of Dulbecco's Phosphate Buffered Saline (DPBS—Lonza Cat #17-512Q) and centrifuged at 800×g for 5 minutes at 22° C. The cell pellet was then re-suspended in 10 mL of growth medium [DMEM/F12 1:1 Mixture with HEPES, L-Gln, 500 mL (DMEM/F12 Lonza Cat #12-719F), 10% heat inactivated fetal bovine serum (Gibco Cat #16140-071), 5 mL of 100× Pen-Strep (Gibco Cat #15140-122), 5 mL of 100×L-Glutamine (Gibco Cat #25030-081) and 500 μg/mL Geneticin (G418) (Invitrogen #10131035)]. A 1 mL sample of the cell suspension in growth media was counted on a Becton Dickinson ViCell to determine cell viability and cell count per mL. The remaining cell suspension was then adjusted with growth media to deliver 2000 viable cells per well using a Matrix Combi Multidrop reagent dispenser, and the cells were dispensed into a white 384 well tissue culture treated assay plate (Corning 3570). The assay plate was then incubated for 48 hours at 37° C. in a humidified environment in 5% carbon dioxide.
Varying concentrations of each compound to be tested (in DMSO) were diluted in assay buffer (HBSS with Calcium/Magnesium (Lonza/BioWhittaker cat #10-527F)/0.1% BSA (Sigma Aldrich cat # A7409-1L)/20 mM HEPES (Lonza/BioWhittaker cat #17-737E) containing 100 μM 3-isobutyl-1-methylxanthin (IBMX; Sigma cat #15879). The final DMSO concentration is 1%.
After 48 hours, the growth media was removed from the assay plate wells, and the cells were treated with 20 μL of the serially diluted compound in assay buffer for 30 minutes at 37° C. in a humidified environment in 5% carbon dioxide. Following the 30 minute incubation, 10 μL of labeled d2 cAMP and 10 μL of anti-cAMP antibody (both diluted 1:20 in cell lysis buffer; as described in the manufacturer's assay protocol) were added to each well of the assay plate. The plates were then incubated at room temperature and after 60 minutes, changes in the HTRF signal were read with an Envision 2104 multi-label plate reader using excitation of 330 nm and emissions of 615 and 665 nm. Raw data were converted to nM cAMP by interpolation from a cAMP standard curve (as described in the manufacturer's assay protocol) and the percent effect was determined relative to a saturating concentration of the full agonist GLP-17-36 (1 μM) included on each plate. EC50 determinations were made from agonist dose-response curves analyzed with a curve fitting program using a 4-parameter logistic dose response equation.

| EC50 (human GLP-1R [1]) | Emax (human GLP-1R [1]) | EC50 (human GLP-1R [2]) | Emax (human GLP-1R [2]) | SMILES |
| --- | --- | --- | --- | --- |
| 23 nM | 88% | 4 nM | 98% | CC1(c2ccc(Cl)cc2F)Oc2cccc(C3CCN(Cc4nc5ccc(C(=O)O)cc5n4Cc4cocn4)CC3)c2O1 (centres unmarked) [Example 58, 2-({4-[2-(4-chloro-2-fluorophenyl)-2-methyl-1,3-benzodioxol-4-yl]piperidin-1-yl}methyl)-1-(1,3-oxazol-4-ylmethyl)-1H-benzimidazole-6-carboxylic acid] |
| 680 nM | 53% | 74 nM | 85% | CN(C)C(=O)CCn1c(CN2CCC(c3cccc4c3OC(C)(c3ccc(Cl)cc3F)O4)CC2)nc2ccc(C(=O)O)cc21 (centres unmarked) [Example 59, 2-({4-[2-(4-chloro-2-fluorophenyl)-2-methyl-1,3-benzodioxol-4-yl]piperidin-1-yl}methyl)-1-[3-(dimethylamino)-3-oxopropyl]-1H-benzimidazole-6-carboxylic acid] |
| 240 nM | 60% | 15 nM | 82% | Cn1cc(CCn2c(CN3CCC(c4cccc5c4OC(C)(c4ccc(Cl)cc4F)O5)CC3)nc3ccc(C(=O)O)cc32)nn1 (centres unmarked) [Example 60, 2-({4-[2-(4-chloro-2-fluorophenyl)-2-methyl-1,3-benzodioxol-4-yl]piperidin-1-yl}methyl)-1-[2-(1-methyl-1H-1,2,3-triazol-4-yl)ethyl]-1H-benzimidazole-6-carboxylic acid] |
| 240 nM | 85% | 10 nM | 79% | CC1(c2ccc(Cl)cc2F)Oc2cccc(C3CCN(Cc4nc5ccc(C(=O)O)cc5n4C4CCOC4)CC3)c2O1 (centres unmarked) [Example 61, 2-({4-[2-(4-chloro-2-fluorophenyl)-2-methyl-1,3-benzodioxol-4-yl]piperidin-1-yl}methyl)-1-(tetrahydrofuran-3-yl)-1H-benzimidazole-6-carboxylic acid] |
| 82 nM | 95% | 2.2 nM | 94% | Cc1nccn1CCn1c(CN2CCC(c3cccc4c3OC(C)(c3ccc(Cl)cc3F)O4)CC2)nc2ccc(C(=O)O)cc21 (centres unmarked) [Example 62, 2-({4-[2-(4-chloro-2-fluorophenyl)-2-methyl-1,3-benzodioxol-4-yl]piperidin-1-yl}methyl)-1-[2-(2-methyl-1H-imidazol-1-yl)ethyl]-1H-benzimidazole-6-carboxylic acid] |
| 66 nM | 96% | 5.2 nM | 91% | Cn1cc(Cn2c(CN3CCC(c4cccc5c4OC(C)(c4ccc(Cl)cc4F)O5)CC3)nc3ccc(C(=O)O)cc32)nn1 (centres unmarked) [Example 63, 2-({4-[2-(4-chloro-2-fluorophenyl)-2-methyl-1,3-benzodioxol-4-yl]piperidin-1-yl}methyl)-1-[(1-methyl-1H-1,2,3-triazol-4-yl)methyl]-1H-benzimidazole-6-carboxylic acid] |
| 91 nM | 80% | 9.2 nM | 94% | CC1(c2ccc(Cl)cc2F)Oc2cccc(C3CCN(Cc4nc5ccc(C(=O)O)cc5n4C[C@H]4CCCO4)CC3)c2O1 (stereo partly drawn) [Example 64, 2-({4-[2-(4-chloro-2-fluorophenyl)-2-methyl-1,3-benzodioxol-4-yl]piperidin-1-yl}methyl)-1-[(2R)-tetrahydrofuran-2-ylmethyl]-1H-benzimidazole-6-carboxylic acid] |
| 11 nM | 99% | 1.2 nM | 99% | CC1(c2ccc(Cl)cc2F)Oc2cccc(C3CCN(Cc4nc5ccc(C(=O)O)cc5n4Cc4cccnc4)CC3)c2O1 (centres unmarked) [Example 65, 2-({4-[2-(4-chloro-2-fluorophenyl)-2-methyl-1,3-benzodioxol-4-yl]piperidin-1-yl}methyl)-1-(pyridin-3-ylmethyl)-1H-benzimidazole-6-carboxylic acid] |
| 850 nM | 74% | 51 nM | 82% | CN(C)C(=O)Cn1c(CN2CCC(c3cccc4c3OC(C)(c3ccc(Cl)cc3F)O4)CC2)nc2ccc(C(=O)O)cc21 (centres unmarked) [Example 66, 2-({4-[2-(4-chloro-2-fluorophenyl)-2-methyl-1,3-benzodioxol-4-yl]piperidin-1-yl}methyl)-1-[2-(dimethylamino)-2-oxoethyl]-1H-benzimidazole-6-carboxylic acid] |
| 1200 nM | 94% | 73 nM | 89% | COCc1cc(Cn2c(CN3CCC(c4cccc5c4OC(C)(c4ccc(Cl)cc4F)O5)CC3)nc3ccc(C(=O)O)cc32)[nH]n1 (centres unmarked) [Example 68, 2-({4-[2-(4-chloro-2-fluorophenyl)-2-methyl-1,3-benzodioxol-4-yl]piperidin-1-yl}methyl)-1-{[3-(methoxymethyl)-1H-pyrazol-5-yl]methyl}-1H-benzimidazole-6-carboxylic acid] |
| 8.3 nM | 98% | 10 nM | 100% | CC1(c2ccc(Cl)cc2F)Oc2cccc(C3CCN(Cc4nc5ccc(C(=O)O)cc5n4Cc4cnco4)CC3)c2O1 (centres unmarked) [Example 69, 2-({4-[2-(4-chloro-2-fluorophenyl)-2-methyl-1,3-benzodioxol-4-yl]piperidin-1-yl}methyl)-1-(1,3-oxazol-5-ylmethyl)-1H-benzimidazole-6-carboxylic acid] |
| 97 nM | 100% | 2.8 nM | 100% | COCCn1cnnc1Cn1c(CN2CCC(c3cccc4c3OC(C)(c3ccc(Cl)cc3F)O4)CC2)nc2ccc(C(=O)O)cc21 (centres unmarked) [Example 70, 2-({4-[2-(4-chloro-2-fluorophenyl)-2-methyl-1,3-benzodioxol-4-yl]piperidin-1-yl}methyl)-1-{[4-(2-methoxyethyl)-4H-1,2,4-triazol-3-yl]methyl}-1H-benzimidazole-6-carboxylic acid] |
| 74 nM | 80% | 6.8 nM | 80% | CN(CCn1c(CN2CCC(c3cccc4c3OC(C)(c3ccc(Cl)cc3F)O4)CC2)nc2ccc(C(=O)O)cc21)S(C)(=O)=O (centres unmarked) [Example 71, 2-({4-[2-(4-chloro-2-fluorophenyl)-2-methyl-1,3-benzodioxol-4-yl]piperidin-1-yl}methyl)-1-{2-[methyl(methylsulfonyl)amino]ethyl}-1H-benzimidazole-6-carboxylic acid] |
| 310 nM | 80% | 14 nM | 76% | CC1(c2ccc(Cl)cc2F)Oc2cccc(C3CCN(Cc4nc5ccc(C(=O)O)cc5n4CC4(O)CCC4)CC3)c2O1 (centres unmarked) [Example 72, 2-({4-[2-(4-chloro-2-fluorophenyl)-2-methyl-1,3-benzodioxol-4-yl]piperidin-1-yl}methyl)-1-[(1-hydroxycyclobutyl)methyl]-1H-benzimidazole-6-carboxylic acid] |
| 10 nM | 100% | 1.7 nM | 98% | CC1(c2ccc(Cl)cc2F)Oc2cccc(C3CCN(Cc4nc5ccc(C(=O)O)cc5n4Cc4cn[nH]c4)CC3)c2O1 (centres unmarked) [Example 73, 2-({4-[2-(4-chloro-2-fluorophenyl)-2-methyl-1,3-benzodioxol-4-yl]piperidin-1-yl}methyl)-1-(1H-pyrazol-4-ylmethyl)-1H-benzimidazole-6-carboxylic acid] |
| 1000 nM | 71% | 65 nM | 82% | CC1(c2ccc(Cl)cc2F)Oc2cccc(C3CCN(Cc4nc5ccc(C(=O)O)cc5n4CCO)CC3)c2O1 (centres unmarked) [Example 75, 2-({4-[2-(4-chloro-2-fluorophenyl)-2-methyl-1,3-benzodioxol-4-yl]piperidin-1-yl}methyl)-1-(2-hydroxyethyl)-1H-benzimidazole-6-carboxylic acid] |
| 7.6 nM | 100% | 0.77 nM | 93% | CCn1nncc1Cn1c(CN2CCC(c3cccc4c3OC(C)(c3ccc(Cl)cc3F)O4)CC2)nc2ccc(C(=O)O)cc21 (centres unmarked) [Example 76, 2-({4-[2-(4-chloro-2-fluorophenyl)-2-methyl-1,3-benzodioxol-4-yl]piperidin-1-yl}methyl)-1-[(1-ethyl-1H-1,2,3-triazol-5-yl)methyl]-1H-benzimidazole-6-carboxylic acid] |
| 1700 nM | 92% | 53 nM | 89% | Cn1cnc(Cn2c(CN3CCC(c4cccc5c4OC(C)(c4ccc(Cl)cc4F)O5)CC3)nc3ccc(C(=O)O)cc32)c1 (centres unmarked) [Example 77, 2-({4-[2-(4-chloro-2-fluorophenyl)-2-methyl-1,3-benzodioxol-4-yl]piperidin-1-yl}methyl)-1-[(1-methyl-1H-imidazol-4-yl)methyl]-1H-benzimidazole-6-carboxylic acid] |
| 78 nM | 100% | 4.5 nM | 89% | Cn1cnnc1Cn1c(CN2CCC(c3cccc4c3OC(C)(c3ccc(Cl)cc3F)O4)CC2)nc2ccc(C(=O)O)cc21 (centres unmarked) [Example 78, 2-({4-[2-(4-chloro-2-fluorophenyl)-2-methyl-1,3-benzodioxol-4-yl]piperidin-1-yl}methyl)-1-[(4-methyl-4H-1,2,4-triazol-3-yl)methyl]-1H-benzimidazole-6-carboxylic acid] |
| 21 nM | 85% | 1.4 nM | 85% | CC1(c2ccc(Cl)cc2F)Oc2cccc(C3CCN(Cc4nc5ccc(C(=O)O)cc5n4C[C@@H]4CCCO4)CC3)c2O1 (stereo partly drawn) [Example 79, 2-({4-[2-(4-chloro-2-fluorophenyl)-2-methyl-1,3-benzodioxol-4-yl]piperidin-1-yl}methyl)-1-[(2S)-tetrahydrofuran-2-ylmethyl]-1H-benzimidazole-6-carboxylic acid] |
